According to patent publication US20090298820A1, “3-SUBSTITUTED-1H-PYRROLO[2,3-B]PYRIDINE AND 3-SUBSTITUTED-1H-PYRROLO[3,2-B]PYRIDINE COMPOUNDS, THEIR USE AS MTOR KINASE AND PI3 KINASE INHIBITORS, AND THEIR SYNTHESES” (Wyeth, priority 2008, published 2009):
pIC50: −log10 of the molar value.

Legend:
Type in all cases: biochemical
mTOR = mTOR (Homo sapiens, UniProt P42345); assay: mTOR enzyme assay (DELFIA format, His6-S6K substrate); conditions: read-out: mTOR Kinase Median IC50
PI3Kγ = PI3Kγ (Homo sapiens, UniProt P48736); assay: PI3K-gamma fluorescence polarization assay; conditions: read-out: PI3Kγ Median IC50
PI3Kα = PI3Kα (Homo sapiens, UniProt P42336); assay: PI3K-alpha fluorescence polarization assay; conditions: read-out: PI3Kα Median IC50
PI3Kα, sequence (P42336 whole entry, species assumed): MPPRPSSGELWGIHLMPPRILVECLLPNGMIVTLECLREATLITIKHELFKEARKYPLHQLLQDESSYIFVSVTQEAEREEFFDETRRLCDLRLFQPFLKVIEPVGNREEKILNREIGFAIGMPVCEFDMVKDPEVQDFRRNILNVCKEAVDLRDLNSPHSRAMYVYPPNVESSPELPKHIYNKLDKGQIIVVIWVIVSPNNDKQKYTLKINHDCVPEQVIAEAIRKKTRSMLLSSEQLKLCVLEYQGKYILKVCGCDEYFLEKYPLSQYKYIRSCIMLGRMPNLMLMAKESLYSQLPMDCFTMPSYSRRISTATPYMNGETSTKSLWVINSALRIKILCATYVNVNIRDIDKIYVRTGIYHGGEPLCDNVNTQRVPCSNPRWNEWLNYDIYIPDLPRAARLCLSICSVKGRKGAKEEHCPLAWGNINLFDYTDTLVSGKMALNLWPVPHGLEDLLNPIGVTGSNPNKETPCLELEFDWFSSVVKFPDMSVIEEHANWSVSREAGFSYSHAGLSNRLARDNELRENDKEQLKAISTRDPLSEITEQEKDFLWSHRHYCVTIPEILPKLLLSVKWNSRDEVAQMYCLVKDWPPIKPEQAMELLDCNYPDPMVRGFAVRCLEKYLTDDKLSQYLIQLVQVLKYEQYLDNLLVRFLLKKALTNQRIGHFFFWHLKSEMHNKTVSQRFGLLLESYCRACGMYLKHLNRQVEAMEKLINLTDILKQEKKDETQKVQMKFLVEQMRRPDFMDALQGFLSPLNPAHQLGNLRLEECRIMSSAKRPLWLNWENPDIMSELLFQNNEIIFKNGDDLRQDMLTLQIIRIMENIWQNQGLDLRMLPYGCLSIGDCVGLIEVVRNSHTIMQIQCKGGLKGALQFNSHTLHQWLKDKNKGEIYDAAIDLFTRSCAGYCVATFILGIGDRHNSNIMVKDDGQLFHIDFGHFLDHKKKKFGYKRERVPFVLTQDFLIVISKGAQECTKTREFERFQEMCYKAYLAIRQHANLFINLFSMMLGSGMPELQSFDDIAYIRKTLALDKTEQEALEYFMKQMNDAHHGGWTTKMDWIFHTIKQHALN
PI3Kα, sequence (P27986 whole entry partner, species assumed): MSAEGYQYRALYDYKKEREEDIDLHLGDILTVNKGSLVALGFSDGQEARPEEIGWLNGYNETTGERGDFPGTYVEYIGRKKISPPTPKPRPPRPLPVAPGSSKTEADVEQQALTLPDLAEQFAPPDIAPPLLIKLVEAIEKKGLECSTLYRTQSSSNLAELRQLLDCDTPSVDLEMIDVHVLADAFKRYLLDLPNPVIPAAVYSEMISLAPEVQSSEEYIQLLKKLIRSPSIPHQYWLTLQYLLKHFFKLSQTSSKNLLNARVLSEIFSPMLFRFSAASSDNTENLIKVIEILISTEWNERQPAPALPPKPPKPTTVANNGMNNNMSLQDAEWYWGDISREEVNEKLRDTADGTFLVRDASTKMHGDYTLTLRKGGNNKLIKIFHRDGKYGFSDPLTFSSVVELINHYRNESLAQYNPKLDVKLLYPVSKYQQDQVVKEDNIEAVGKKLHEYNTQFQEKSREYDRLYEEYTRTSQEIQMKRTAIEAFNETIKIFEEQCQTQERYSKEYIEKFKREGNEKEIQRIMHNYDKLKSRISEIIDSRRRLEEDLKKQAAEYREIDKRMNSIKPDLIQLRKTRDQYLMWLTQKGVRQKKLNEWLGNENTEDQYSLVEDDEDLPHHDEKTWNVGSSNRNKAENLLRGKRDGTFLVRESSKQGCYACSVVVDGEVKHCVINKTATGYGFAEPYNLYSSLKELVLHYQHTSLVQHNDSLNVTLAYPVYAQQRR

PI3Kγ, sequence (P48736 whole entry, species assumed): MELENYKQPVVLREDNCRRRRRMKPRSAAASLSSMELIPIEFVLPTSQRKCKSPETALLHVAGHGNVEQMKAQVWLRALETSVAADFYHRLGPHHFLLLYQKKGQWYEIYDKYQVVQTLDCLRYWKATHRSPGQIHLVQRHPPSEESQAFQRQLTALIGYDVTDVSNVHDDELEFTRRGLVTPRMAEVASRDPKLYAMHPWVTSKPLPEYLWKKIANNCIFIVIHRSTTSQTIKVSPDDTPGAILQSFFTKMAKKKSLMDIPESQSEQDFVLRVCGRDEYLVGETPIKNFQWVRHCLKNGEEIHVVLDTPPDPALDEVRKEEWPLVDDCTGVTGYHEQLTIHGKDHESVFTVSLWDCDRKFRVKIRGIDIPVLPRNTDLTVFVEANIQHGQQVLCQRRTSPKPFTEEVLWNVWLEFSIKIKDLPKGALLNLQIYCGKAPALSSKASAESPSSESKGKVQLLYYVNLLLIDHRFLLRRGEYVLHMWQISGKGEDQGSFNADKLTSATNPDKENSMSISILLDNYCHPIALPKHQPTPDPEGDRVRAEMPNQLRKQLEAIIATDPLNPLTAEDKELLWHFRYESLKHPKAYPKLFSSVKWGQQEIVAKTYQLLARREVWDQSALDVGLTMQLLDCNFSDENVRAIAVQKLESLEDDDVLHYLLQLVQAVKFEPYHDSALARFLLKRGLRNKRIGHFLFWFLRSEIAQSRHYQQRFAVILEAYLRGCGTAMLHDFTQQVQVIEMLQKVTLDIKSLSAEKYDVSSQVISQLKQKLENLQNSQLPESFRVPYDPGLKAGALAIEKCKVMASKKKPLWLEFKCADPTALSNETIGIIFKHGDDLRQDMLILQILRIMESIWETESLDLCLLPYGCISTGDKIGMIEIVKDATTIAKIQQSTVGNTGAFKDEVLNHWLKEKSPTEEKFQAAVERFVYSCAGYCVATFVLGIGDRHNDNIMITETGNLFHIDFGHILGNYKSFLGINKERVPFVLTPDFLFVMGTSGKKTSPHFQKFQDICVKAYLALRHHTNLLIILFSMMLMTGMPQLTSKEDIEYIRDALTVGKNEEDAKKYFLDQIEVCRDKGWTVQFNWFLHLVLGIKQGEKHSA

Row | Molecule | pIC50 (mTOR) | pIC50 (PI3Kγ) | pIC50 (PI3Kα)
1 | Cn1cc(/C=C2\Oc3cccc(O)c3C2=O)c2c(-c3ccc(S(=O)(=O)N4CCCCC4)cc3)ccnc21 [Compound 181, (2Z)-4-hydroxy-2-({1-methyl-4-[4-(piperidin-1-ylsulfonyl)phenyl]-1H-pyrrolo[2,3-b]pyridin-3-yl}methylidene)-1-benzofuran-3(2H)-one] | 7.24 | 5.92 | 6.91
2 | (2Z)-2-({4-[4-(5,6-dihydro-4H-1,3-oxazin-2-yl)phenyl]-1-methyl-1H-pyrrolo[2,3- b]pyridin-3-yl}methylidene)-4-hydroxy-1-benzofuran-3(2H)-one [Compound 22] | 8.34 | 6.56 | 6.96
3 | Cn1cc(/C=C2\Oc3cccc(O)c3C2=O)c2c(-c3ccc(Oc4ccccc4)cc3)ccnc21 [Compound 84, (2Z)-4-hydroxy-2-{[1-methyl-4-(4-phenoxyphenyl)-1H-pyrrolo[2,3-b]pyridin-3-yl]methylene}-1-benzofuran-3(2H)-one] | 6.78 | < 5.00 | 5.31
4 | CCn1cc(/C=C2\Oc3cccc(O)c3C2=O)c2c(-c3ccccc3)ccnc21 [Compound 116, (2Z)-2-[(1-ethyl-4-phenyl-1H-pyrrolo[2,3-b]pyridin-3-yl)methylene]-4-hydroxy-1-benzofuran-3(2H)-one] | 7.64 | < 5.00 | 5.07
5 | Cn1cc(/C=C2\Oc3cccc(O)c3C2=O)c2c(-c3ccc(C(=O)NCCCO)cc3)ccnc21 [Compound 147, 4-{3-[(Z)-(4-hydroxy-3-oxo-1-benzofuran-2(3H)-ylidene)methyl]-1-methyl-1H-pyrrolo[2,3-b]pyridin-4-yl}-N-(3-hydroxypropyl)benzamide] | 9.22 | 7.27 | 7.42
6 | Cn1cc(/C=C2\Oc3cccc(O)c3C2=O)c2c(-c3ccc(S(=O)(=O)NCc4ccccc4)cc3)ccnc21 [Compound 90, N-benzyl-4-{3-[(Z)-(4-hydroxy-3-oxo-1-benzofuran-2(3H)-ylidene)methyl]-1-methyl-1H-pyrrolo[2,3-b]pyridin-4-yl}benzenesulfonamide] | 7.62 | 7.80 | 8.00
7 | Cn1cc(/C=C2\Oc3cccc(O)c3C2=O)c2c(-c3ccc(S(=O)(=O)NC4CC4)cc3)ccnc21 [Compound 82, N-cyclopropyl-4-{3-[(Z)-(4-hydroxy-3-oxo-1-benzofuran-2(3H)-ylidene)methyl]-1-methyl-1H-pyrrolo[2,3-b]pyridin-4-yl}benzenesulfonamide] | 8.85 | 7.15 | 7.70
8 | COCCNC(=O)c1ccc(-c2ccnc3c2c(/C=C2\Oc4cccc(O)c4C2=O)cn3C)cc1 [Compound 149, 4-{3-[(Z)-(4-hydroxy-3-oxo-1-benzofuran-2(3H)-ylidene)methyl]-1-methyl-1H-pyrrolo[2,3-b]pyridin-4-yl}-N-(2-methoxyethyl)benzamide] | 8.77 | 7.21 | 7.32
9 | COCCN(C)C(=O)c1ccc(-c2ccnc3c2c(/C=C2\Oc4ccc(NC(=O)Nc5cccnc5)cc4C2=O)cn3C)cc1 [Compound 247, N-(2-methoxyethyl)-N-methyl-4-{1-methyl-3-[(Z)-{3-oxo-5-[(pyridin-3-ylcarbamoyl)amino]-1-benzofuran-2(3H)-ylidene}methyl]-1H-pyrrolo[2,3-b]pyridin-4-yl}benzamide] | 7.52 | 6.32 | 5.48
10 | CC(=O)Nc1ccc(-c2ccnc3c2c(/C=C2\Oc4cc(O)cc(O)c4C2=O)cn3C)cc1 [Compound 35, N-(4-{3-[(Z)-(4,6-dihydroxy-3-oxo-1-benzofuran-2(3H)-ylidene)methyl]-1-methyl-1H-pyrrolo[2,3-b]pyridin-4-yl}phenyl)acetamide] | 9.40 | 7.29 | 7.96
11 | Cn1cc(/C=C2\Oc3cccc(O)c3C2=O)c2c(-c3cccc(S(N)(=O)=O)c3)ccnc21 [Compound 21, 3-{3-[(Z)-(4-hydroxy-3-oxo-1-benzofuran-2(3H)-ylidene)methyl]-1-methyl-1H-pyrrolo[2,3-b]pyridin-4-yl}benzenesulfonamide] | 8.46 | 6.85 | 7.47
12 | Cn1cc(/C=C2\Oc3cc(O)cc(O)c3C2=O)c2c(/C=C/c3ccccc3)ccnc21 [Compound 51, (2Z)-4,6-dihydroxy-2-({1-methyl-4-[(E)-2-phenylvinyl]-1H-pyrrolo[2,3-b]pyridin-3-yl}methylene)-1-benzofuran-3(2H)-one] | 8.47 | 7.04 | 7.33

More lines, now with the values ahead:

Row | pIC50 (mTOR) | pIC50 (PI3Kγ) | pIC50 (PI3Kα) | Molecule
13 | 9.70 | 6.75 | 7.64 | Cn1cc(/C=C2\Oc3cc(O)cc(O)c3C2=O)c2c(N3CCC(O)CC3)ccnc21 [Compound 50, (2Z)-4,6-dihydroxy-2-{[4-(4-hydroxypiperidin-1-yl)-1-methyl-1H-pyrrolo[2,3-b]pyridin-3-yl]methylene}-1-benzofuran-3(2H)-one]
14 | 6.97 | 5.76 | 6.45 | Cn1cc(/C=C2\Oc3ccc(NC(=O)NC4CCN(C(=O)C(F)(F)F)CC4)cc3C2=O)c2c(N3CC4CCC(C3)O4)ccnc21 [Compound 286, 1-[(2Z)-2-{[1-methyl-4-(8-oxa-3-azabicyclo[3.2.1]oct-3-yl)-1H-pyrrolo[2,3-b]pyridin-3-yl]methylidene}-3-oxo-2,3-dihydro-1-benzofuran-5-yl]-3-[1-(trifluoroacetyl)piperidin-4-yl]urea]
15 | 6.84 | 5.95 | 6.30 | Cn1cc(/C=C2\Oc3ccc(NC(=O)Nc4ccccc4)cc3C2=O)c2c(N3CC4CCC(C3)O4)ccnc21 [Compound 172, 1-[(2Z)-2-{[1-methyl-4-(8-oxa-3-azabicyclo[3.2.1]oct-3-yl)-1H-pyrrolo[2,3-b]pyridin-3-yl]methylidene}-3-oxo-2,3-dihydro-1-benzofuran-5-yl]-3-phenylurea]
16 | 7.68 | 6.03 | 6.11 | CN(C)CCOc1ccc(NC(=O)Nc2ccc3c(c2)C(=O)/C(=C/c2cn(C)c4nccc(N5CCC(C(=O)N(C)C)CC5)c24)O3)cc1 [Compound 274, 1-{3-[(Z)-{5-[({4-[2-(dimethylamino)ethoxy]phenyl}carbamoyl)amino]-3-oxo-1-benzofuran-2(3H)-ylidene}methyl]-1-methyl-1H-pyrrolo[2,3-b]pyridin-4-yl}-N,N-dimethylpiperidine-4-carboxamide]
17 | 6.82 | < 5.00 | 5.90 | CN(C)C(=O)C1CCN(c2ccnc3c2c(/C=C2\Oc4ccc(NC(=O)Nc5nc6ccccc6n5C)cc4C2=O)cn3C)CC1 [Compound 290, N,N-dimethyl-1-(1-methyl-3-{(Z)-[5-{[(1-methyl-1H-benzimidazol-2-yl)carbamoyl]amino}-3-oxo-1-benzofuran-2(3H)-ylidene]methyl}-1H-pyrrolo[2,3-b]pyridin-4-yl)piperidine-4-carboxamide]
18 | 6.76 | 5.99 | 6.66 | CN1CCN(NC(=O)Nc2ccc3c(c2)C(=O)/C(=C/c2cn(C)c4nccc(N5CC6CCC(C5)O6)c24)O3)CC1 [Compound 221, 1-[(2Z)-2-{[1-methyl-4-(8-oxa-3-azabicyclo[3.2.1]oct-3-yl)-1H-pyrrolo[2,3-b]pyridin-3-yl]methylidene}-3-oxo-2,3-dihydro-1-benzofuran-5-yl]-3-(4-methylpiperazin-1-yl)urea]
19 | 6.55 | 5.18 | 5.64 | CN1CCN(c2ccc(NC(=O)Nc3ccc4c(c3)C(=O)/C(=C/c3cn(C)c5nccc(N6CC7CCC(C6)O7)c35)O4)cc2)CC1 [Compound 229, 1-[(2Z)-2-{[1-methyl-4-(8-oxa-3-azabicyclo[3.2.1]oct-3-yl)-1H-pyrrolo[2,3-b]pyridin-3-yl]methylidene}-3-oxo-2,3-dihydro-1-benzofuran-5-yl]-3-[4-(4-methylpiperazin-1-yl)phenyl]urea]
20 | 7.14 | 5.42 | 5.83 | CC(C)NC(=O)Nc1ccc2c(c1)C(=O)/C(=C/c1cn(C)c3nccc(N4CCC(C(=O)N(C)C)CC4)c13)O2 [Compound 288, N,N-dimethyl-1-(1-methyl-3-{(Z)-[5-{[(1-methylethyl)carbamoyl]amino}-3-oxo-1-benzofuran-2(3H)-ylidene]methyl}-1H-pyrrolo[2,3-b]pyridin-4-yl)piperidine-4-carboxamide]
21 | 6.12 | 6.32 | 6.44 | Cn1cc(/C=C2\Oc3ccc(NC(=O)Nc4cccnc4)cc3C2=O)c2c(-c3ccccc3)ccnc21 [Compound 183, 1-{(2Z)-2-[(1-methyl-4-phenyl-1H-pyrrolo[2,3-b]pyridin-3-yl)methylidene]-3-oxo-2,3-dihydro-1-benzofuran-5-yl}-3-pyridin-3-ylurea]
22 | 7.13 | < 5.00 | 4.96 | CN1CCN(c2ccc(NC(=O)Nc3ccc4c(c3)C(=O)/C(=C/c3cn(C)c5nccc(N6CCC(C(=O)N(C)C)CC6)c35)O4)cn2)CC1 [Compound 230, N,N-dimethyl-1-(1-methyl-3-{(Z)-[5-({[6-(4-methylpiperazin-1-yl)pyridin-3-yl]carbamoyl}amino)-3-oxo-1-benzofuran-2(3H)-ylidene]methyl}-1H-pyrrolo[2,3-b]pyridin-4-yl)piperidine-4-carboxamide]
23 | 8.32 | < 5.00 | < 5.00 | COCCCNC(=O)C1CCN(c2ccnc3c2c(C=C2Oc4ccc(NC(=O)Nc5cccnc5)cc4C2=O)cn3C)CC1 [Compound 200, N-(3-methoxypropyl)-1-[1-methyl-3-({3-oxo-5-[(pyridin-3-ylcarbamoyl)amino]-1-benzofuran-2(3H)-ylidene}methyl)-1H-pyrrolo[2,3-b]pyridin-4-yl]piperidine-4-carboxamide]
